The numbers were not newly measured in patent US6727058B2, “Intergrase assay” (priority 1998, dated 2004), which cites them from elsewhere.

This data set has as its target lacR (Escherichia coli, UniProt P03023). The settings on record: association constant; Barkley & Bourgeios 1980.

Chain of lacR (P03023 whole entry): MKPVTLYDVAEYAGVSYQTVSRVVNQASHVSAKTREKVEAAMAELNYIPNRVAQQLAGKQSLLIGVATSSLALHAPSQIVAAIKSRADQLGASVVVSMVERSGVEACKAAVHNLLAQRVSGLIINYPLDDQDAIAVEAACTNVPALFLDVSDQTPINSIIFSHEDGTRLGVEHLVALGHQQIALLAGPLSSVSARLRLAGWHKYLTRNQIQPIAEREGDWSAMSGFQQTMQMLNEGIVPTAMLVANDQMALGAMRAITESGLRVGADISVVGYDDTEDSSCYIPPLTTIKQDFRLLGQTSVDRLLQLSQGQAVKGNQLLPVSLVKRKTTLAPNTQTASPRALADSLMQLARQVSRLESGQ

For the compound `CC(C)S[C@@H]1O[C@H](CO)[C@H](O)[C@H](O)[C@H]1O` [IPTG], the “ka of lacR complexing IPTG” value is on record as “≈ 10^6 M^−1”.
